{"source": "EPA's ToxRefDB 2", "key": {"rat [1]": {"tested_on": "rat", "conditions": "Prenatal developmental toxicity study, sprague dawley, Oral, Gavage/Intubation, dose end: 17 GD"}, "dog [2]": {"tested_on": "dog", "conditions": "Sub-acute repeat dose toxicity, beagle, Oral, Capsule, dose end: 4 week, group: systemic"}, "rat [3]": {"tested_on": "rat", "conditions": "Prenatal developmental toxicity study, sprague dawley, Oral, Gavage/Intubation, dose end: 17 GD", "remark": "listed apart in the source"}, "dog [4]": {"tested_on": "dog", "conditions": "Chronic toxicity; beagle; Oral; Capsule; dose end: 26 week; group: systemic; systemic / in life observation / body weight / body weight gain + systemic / in life observation / clinical signs / [other] + systemic / in …"}, "rabbit [5]": {"tested_on": "rabbit", "conditions": "Prenatal developmental toxicity study, new zealand white, Oral, Gavage/Intubation, dose end: 19 GD, group: maternal"}, "rat [6]": {"tested_on": "rat", "conditions": "Fertility (Segment I); sprague dawley; Oral; Gavage/Intubation; dose end: 7 GD; group: parental; systemic / in life observation / body weight / body weight + systemic / in life observation / clinical signs / abnormal gait + systemic / in…"}, "rabbit [7]": {"tested_on": "rabbit", "conditions": "Prenatal developmental toxicity study, new zealand white, Oral, Gavage/Intubation, dose end: 19 GD, group: maternal", "remark": "listed apart in the source"}, "rat [8]": {"tested_on": "rat", "conditions": "Sub-acute repeat dose toxicity, sprague dawley, Oral, Gavage/Intubation, dose end: 28 day, group: systemic"}, "rat [9]": {"tested_on": "rat", "conditions": "Peri- and post-natal toxicity study (Segment III), sprague dawley, Oral, Gavage/Intubation, dose end: 5 PND"}, "rat [10]": {"tested_on": "rat", "conditions": "Multigenerational reproductive toxicity study, sprague dawley, Oral, Water, dose end: 3 generation, systemic / pathology microscopic / liver / apoptosis + systemic / pathology microscopic / liver / glycogen deposition"}, "[11]": {"conditions": "group: developmental, developmental / developmental malformation / mouth / jaw / cleft palate"}, "[12]": {"conditions": "group: developmental, developmental / developmental malformation / mouth / jaw / cleft palate + systemic / in life observation / body weight / fetal weight"}, "[13]": {"conditions": "group: maternal, systemic / in life observation / clinical signs / impaired righting reflex + systemic / in life observation / clinical signs / piloerection"}, "[14]": {"conditions": "systemic / clinical chemistry / albumin / albumin + systemic / clinical chemistry / cholesterol / cholesterol + systemic / clinical …"}, "[15]": {"conditions": "systemic / clinical chemistry / cholesterol / cholesterol + systemic / clinical chemistry / lipids / phospholipids"}, "[16]": {"conditions": "group: maternal, systemic / in life observation / body weight / body weight gain + systemic / in life observation / clinical signs / abnormal gait + systemic…"}, "[17]": {"conditions": "systemic / in life observation / body weight / body weight gain + systemic / in life observation / clinical signs / defecation + systemic / …"}, "[18]": {"conditions": "systemic / in life observation / clinical signs / abnormal feces + systemic / in life observation / clinical signs / body cold to touch + …"}, "[19]": {"conditions": "systemic / in life observation / body weight / body weight gain + systemic / in life observation / food consumption / food consumption"}, "[20]": {"conditions": "systemic / in life observation / body weight / body weight gain + systemic / in life observation / food consumption / food consumption + …"}, "[21]": {"conditions": "systemic / in life observation / clinical signs / unsteady gait + systemic / in life observation / body weight / body weight gain"}, "[22]": {"conditions": "systemic / in life observation / clinical signs / unsteady gait + systemic / in life observation / body weight / body weight gain + systemic…"}, "[23]": {"conditions": "group: developmental, developmental / offspring survival late / viability index / viability index + developmental / developmental landmark / vaginal opening / …"}, "[24]": {"conditions": "group: maternal, reproductive / offspring survival early / dead fetuses / dead fetuses"}, "[25]": {"conditions": "group: offspring, systemic / in life observation / body weight / offspring (pup) weight"}, "[26]": {"conditions": "group: offspring, systemic / in life observation / body weight / offspring (pup) weight + systemic / organ weight / prostate / absolute + systemic / organ …"}}, "data": [{"molecule": "COc1cccc(-c2ccc(/C=C\\CN3CCCCCC3)cc2Cl)c1.Cl", "values": [{"measurement": "LEL", "setting": "rat [1]; [11]", "value": 60, "unit": "mg/kg/day"}, {"measurement": "LOAEL", "setting": "rat [1]; [11]", "value": 60, "unit": "mg/kg/day"}, {"measurement": "NEL", "setting": "rat [1]; [12]", "value": 30, "unit": "mg/kg/day"}, {"measurement": "NOAEL", "setting": "rat [1]; [12]", "value": 30, "unit": "mg/kg/day"}, {"measurement": "LEL", "setting": "rat [1]; [13]", "value": 30, "unit": "mg/kg/day"}, {"measurement": "LOAEL", "setting": "rat [1]; [13]", "value": 30, "unit": "mg/kg/day"}, {"measurement": "NEL", "setting": "rat [1]; [13]", "value": "< 30", "unit": "mg/kg/day"}, {"measurement": "NOAEL", "setting": "rat [1]; [13]", "value": "< 30", "unit": "mg/kg/day"}, {"measurement": "LOAEL", "setting": "dog [2]; [14]", "value": 10, "unit": "mg/kg/day"}, {"measurement": "NOAEL", "setting": "dog [2]; [14]", "value": 5, "unit": "mg/kg/day"}, {"measurement": "LEL", "setting": "dog [2]; [15]", "value": 5, "unit": "mg/kg/day"}, {"measurement": "NEL", "setting": "dog [2]; [15]", "value": "< 5", "unit": "mg/kg/day"}, {"measurement": "LEL", "setting": "rat [3]; [11]", "value": 75, "unit": "mg/kg/day"}, {"measurement": "LOAEL", "setting": "rat [3]; [11]", "value": 75, "unit": "mg/kg/day"}, {"measurement": "NEL", "setting": "rat [3]; [11]", "value": 35, "unit": "mg/kg/day"}, {"measurement": "NOAEL", "setting": "rat [3]; [11]", "value": 35, "unit": "mg/kg/day"}, {"measurement": "LEL", "setting": "rat [3]; [16]", "value": 35, "unit": "mg/kg/day"}, {"measurement": "LOAEL", "setting": "rat [3]; [16]", "value": 35, "unit": "mg/kg/day"}, {"measurement": "NEL", "setting": "rat [3]; [16]", "value": 15, "unit": "mg/kg/day"}, {"measurement": "NOAEL", "setting": "rat [3]; [16]", "value": 15, "unit": "mg/kg/day"}, {"measurement": "LEL", "setting": "dog [4]", "value": 15, "unit": "mg/kg/day"}, {"measurement": "LOAEL", "setting": "dog [4]", "value": 15, "unit": "mg/kg/day"}, {"measurement": "NEL", "setting": "dog [4]", "value": 7.5, "unit": "mg/kg/day"}, {"measurement": "NOAEL", "setting": "dog [4]", "value": 7.5, "unit": "mg/kg/day"}, {"measurement": "LEL", "setting": "rabbit [5]; [17]", "value": 25, "unit": "mg/kg/day"}, {"measurement": "NEL", "setting": "rabbit [5]; [17]", "value": "< 25", "unit": "mg/kg/day"}, {"measurement": "LOAEL", "setting": "rabbit [5]; [18]", "value": "> 150", "unit": "mg/kg/day"}, {"measurement": "NOAEL", "setting": "rabbit [5]; [18]", "value": "≥ 150", "unit": "mg/kg/day"}, {"measurement": "LEL", "setting": "rat [6]", "value": 90, "unit": "mg/kg/day"}, {"measurement": "LOAEL", "setting": "rat [6]", "value": 90, "unit": "mg/kg/day"}, {"measurement": "NEL", "setting": "rat [6]", "value": 30, "unit": "mg/kg/day"}, {"measurement": "NOAEL", "setting": "rat [6]", "value": 30, "unit": "mg/kg/day"}, {"measurement": "LEL", "setting": "rabbit [7]; [19]", "value": 35, "unit": "mg/kg/day"}, {"measurement": "LOAEL", "setting": "rabbit [7]; [19]", "value": 35, "unit": "mg/kg/day"}, {"measurement": "NEL", "setting": "rabbit [7]; [20]", "value": 15, "unit": "mg/kg/day"}, {"measurement": "NOAEL", "setting": "rabbit [7]; [20]", "value": 15, "unit": "mg/kg/day"}, {"measurement": "LOAEL", "setting": "rat [8]; [21]", "value": 30, "unit": "mg/kg/day"}, {"measurement": "NOAEL", "setting": "rat [8]; [21]", "value": "< 30", "unit": "mg/kg/day"}, {"measurement": "LEL", "setting": "rat [8]; [22]", "value": 30, "unit": "mg/kg/day"}, {"measurement": "NEL", "setting": "rat [8]; [22]", "value": "< 30", "unit": "mg/kg/day"}]}, {"molecule": "CCCCCCCCc1ccc(O)cc1", "note": "[4-Octylphenol]", "values": [{"measurement": "LEL", "setting": "rat [9]; group: developmental, developmental / developmental landmark / vaginal opening / vaginal opening + developmental / developmental landmark / preputial separation…", "value": 50, "unit": "mg/kg/day"}, {"measurement": "LOAEL", "setting": "rat [9]; [23]", "value": "> 100", "unit": "mg/kg/day"}, {"measurement": "NEL", "setting": "rat [9]; [23]", "value": 25, "unit": "mg/kg/day"}, {"measurement": "NOAEL", "setting": "rat [9]; [23]", "value": "≥ 100", "unit": "mg/kg/day"}, {"measurement": "LEL", "setting": "rat [9]; [24]", "value": 50, "unit": "mg/kg/day"}, {"measurement": "LOAEL", "setting": "rat [9]; [24]", "value": "> 100", "unit": "mg/kg/day"}, {"measurement": "NEL", "setting": "rat [9]; [24]", "value": 25, "unit": "mg/kg/day"}, {"measurement": "NOAEL", "setting": "rat [9]; [24]", "value": "≥ 100", "unit": "mg/kg/day"}, {"measurement": "LOAEL", "setting": "rat [9]; [25]", "value": 25, "unit": "mg/kg/day"}, {"measurement": "NOAEL", "setting": "rat [9]; [25]", "value": 12.5, "unit": "mg/kg/day"}, {"measurement": "LEL", "setting": "rat [9]; [26]", "value": 12.5, "unit": "mg/kg/day"}, {"measurement": "NEL", "setting": "rat [9]; [26]", "value": "< 12.5", "unit": "mg/kg/day"}, {"measurement": "LEL", "setting": "rat [10]; group: offspring", "value": 1.25, "unit": "mg/kg/day"}, {"measurement": "LOAEL", "setting": "rat [10]; group: offspring", "value": "> 1.25", "unit": "mg/kg/day"}, {"measurement": "NEL", "setting": "rat [10]; group: offspring", "value": "< 1.25", "unit": "mg/kg/day"}, {"measurement": "NOAEL", "setting": "rat [10]; group: offspring", "value": "≥ 1.25", "unit": "mg/kg/day"}, {"measurement": "LEL", "setting": "rat [10]; group: parental", "value": 1.25, "unit": "mg/kg/day"}, {"measurement": "LOAEL", "setting": "rat [10]; group: parental", "value": "> 1.25", "unit": "mg/kg/day"}, {"measurement": "NEL", "setting": "rat [10]; group: parental", "value": "< 1.25", "unit": "mg/kg/day"}, {"measurement": "NOAEL", "setting": "rat [10]; group: parental", "value": "≥ 1.25", "unit": "mg/kg/day"}]}]}
